Data published in patent publication US10759810B2 (AO “TATKHIMFARMPREPARATY”, priority 2016, dated 2020).
Converted amounts (≈) assume the structure as drawn.

Columns and labels:
Experiment in all cases: MIC, serial dilutions in Mueller-Hinton broth
Format in all cases: cell-based
[1] = tested on: Micrococcus luteus (clinical isolate); details: inoculum 10^7 CFU/ml, gram-positive; for MIC: Micrococcus luteus, read-out: MIC, M. luteus
Procedure: (§1) Measurement of antibacterial activity was carried out on the strains of Staphylococcus aureus ATCC 29213 (museum strain), Staphylococcus epidermidis (clinical isolate), Micrococcus luteus (clinical isolate), Bacillus subtilis 168 (museum strain), Escherichia coli ATCC 25922 (museum strain), Salmonella typhimurium TA100 (museum strain), Pseudomonas aeruginosa ATCC 27853 (museum strain). A comparative assessment of the spectrum of antibacterial action on reference strains and clinical isolates of gram-positive microorganisms was carried out using a micromethod for determining the minimum inhibitory concentration (MIC) using serial dilutions in Mueller-Hinton broth using 96-well sterile plates.
(§2) The first lowest concentration of the antibiotic (from a series of successive dilutions), where bacterial growth is not visually determined, is considered to be the minimum inhibitory concentration (MIC).
(§3) For the preparation of inoculum (infectious material used for artificial contamination), intended for the study of antibacterial activity, was used a pure daily culture of bacteria grown on a dense nutrient medium (agar LB medium). In a sterile isotonic solution of sodium chloride, a suspension of microorganisms was prepared, adjusting the inoculum density to 0.5 according to the McFarland standard (1.5·10^8 CFU/ml). Then, the resulting inoculum was diluted to a concentration of 10^7 CFU/ml with LB-broth. The inoculum was used for 15 minutes after preparation; the purity of the bacterial strains was monitored before each experiment.
(§4) 100 μl of Muller-Hinton broth was added to the wells of each plate; the test base was introduced into the first well at a concentration of 128 μg/ml in a volume of 100 μl and its concentration was adjusted to 0.25 μg/ml by consecutive two-fold dilution. […] Each preparation in the experiment was titrated three times. […] In addition, the purity of nutrient media and solvents was monitored. The plates were incubated in a thermostat at […] for 24 hours.
(§5) The growth of cultures was assessed visually, comparing the growth of microorganisms in the presence of test compounds with the growth of culture without them.

[2] = tested on: Escherichia coli ATCC 25922 (museum strain); details: inoculum 10^7 CFU/ml, gram-negative; for MIC: Escherichia coli, ATCC25922, read-out: MIC, E. coli
Procedure: as §1, §2, §3, §4, §5

[3] = tested on: Salmonella typhimurium TA100 (museum strain); details: inoculum 10^7 CFU/ml, gram-negative; for MIC: Salmonella enterica, TYPHIMURIUM, read-out: MIC, S. typhimurium
Procedure: as §1, §2, §3, §4, §5

[4] = tested on: Staphylococcus epidermidis (clinical isolate); details: inoculum 10^7 CFU/ml, gram-positive; for MIC: Staphylococcus epidermidis, read-out: MIC, S. epidermidis
Procedure: as §1, §2, §3, §4, §5

[5] = tested on: Bacillus subtilis 168 (museum strain); details: inoculum 10^7 CFU/ml, gram-positive; for MIC: Bacillus subtilis, read-out: MIC, B. subtilis
Procedure: as §1, §2, §3, §4, §5

[6] = tested on: Staphylococcus aureus ATCC 29213 (museum strain); details: inoculum 10^7 CFU/ml, gram-positive; for MIC: Staphylococcus aureus, ATCC29213, read-out: MIC, S. aureus
Procedure: as §1, §2, §3, §4, §5

[7] = tested on: Pseudomonas aeruginosa ATCC 27853 (museum strain); details: inoculum 10^7 CFU/ml, gram-negative; for MIC: Pseudomonas aeruginosa, ATCC27853, read-out: MIC, P. aerugenosa
Procedure: as §1, §2, §3, §4, §5

Structure (SMILES)	MIC, M. luteus [1] [µg/mL]	MIC, E. coli [2] [µg/mL]	MIC, S. typhimurium [3] [µg/mL]	MIC, S. epidermidis [4] [µg/mL]	MIC, B. subtilis [5] [µg/mL]	MIC, S. aureus [6] [µg/mL]	MIC, P. aerugenosa [7] [µg/mL]	MIC [1] [µg/mL]	MIC [2] [µg/mL]	MIC [3] [µg/mL]	MIC [4] [µg/mL]	MIC [5] [µg/mL]	MIC [6] [µg/mL]	MIC [7] [µg/mL]
Cc1ncc(CN2CCN(c3cc4c(cc3F)c(=O)c(C(=O)O)cn4C3CC3)CC2)c2c1OC(C)(C)OC2 [Compound I-1, 1-cyclopropyl-6-fluoro-7-(4-((2,2,8-trimethyl-4H-[1,3]dioxino-[4,5-c]pyridine-5-yl)methyl)piperazinyl)-4-oxo-1,4-dihydroquinolin-3-carboxylic acid]	32 (≈ 61.2 µM)	64 (≈ 122 µM)	4 (≈ 7.65 µM)	16 (≈ 30.6 µM)	<2	32 (≈ 61.2 µM)	>64							
Cc1ncc(CSCCN2CCN(c3cc4c(cc3F)c(=O)c(C(=O)O)cn4C3CC3)CC2)c2c1OC(C)(C)OC2 [Compound I-4, 1-cyclopropyl-6-fluoro-7-(4-(2-(((2,2,8-trimethyl-4H-[1,3]dioxino-[4,5-c]pyridine-5-yl)methyl)sulfanyl)ethyl)piperazinyl)-4-oxo-1,4-dihydroquinolin-3-carboxylic acid]	8 (≈ 13.7 µM)	64 (≈ 110 µM)	4 (≈ 6.86 µM)	32 (≈ 54.9 µM)	<2	16 (≈ 27.5 µM)	>64							
Cc1ncc(CSCCN2CCN(c3cc4c(cc3F)c(=O)c(C(=O)O)cn4C3CC3)CC2)c(CO)c1O [Compound I-5, 1-cyclopropyl-6-fluoro-7-(4-(2-(((5-hydroxy-4-hydroxymethyl-6-methylpyridine-3-yl)methyl)sulfanyl)ethyl)piperazinyl)-4-oxo-1,4-dihydroquinolin-3-carboxylic acid]	8 (≈ 14.7 µM)	8 (≈ 14.7 µM)	4 (≈ 7.37 µM)	8 (≈ 14.7 µM)	<2	8 (≈ 14.7 µM)	32 (≈ 59 µM)							
CCCC1OCc2c(CN3CCN(c4cc5c(cc4F)c(=O)c(C(=O)O)cn5C4CC4)CC3)cnc(C)c2O1 (stereo not shown) [Compound I-7, 1-cyclopropyl-6-fluoro-7-(4-((8-methyl-2-propyl-4H-[1,3]dioxino-[4,5-c]pyridine-5-yl)methyl)piperazinyl)-4-oxo-1,4-dihydroquinolin-3-carboxylic acid]	64 (≈ 119 µM)	>64	4 (≈ 7.45 µM)	64 (≈ 119 µM)	<2	64 (≈ 119 µM)	>64							
CCCCCCCCC1OCc2c(CN3CCN(c4cc5c(cc4F)c(=O)c(C(=O)O)cn5C4CC4)CC3)cnc(C)c2O1 (stereo not shown) [Compound I-8, 1-cyclopropyl-6-fluoro-7-(4-((8-methyl-2-octyl-4H-[1,3]dioxino-[4,5-c]pyridine-5-yl)methyl)piperazinyl)-4-oxo-1,4-dihydroquinolin-3-carboxylic acid]	64 (≈ 105 µM)	>64	4 (≈ 6.59 µM)	64 (≈ 105 µM)	<2	32 (≈ 52.7 µM)	>64							

Other lines, results leading:

MIC, M. luteus [1] [µg/mL]	MIC, E. coli [2] [µg/mL]	MIC, S. typhimurium [3] [µg/mL]	MIC, S. epidermidis [4] [µg/mL]	MIC, B. subtilis [5] [µg/mL]	MIC, S. aureus [6] [µg/mL]	MIC, P. aerugenosa [7] [µg/mL]	MIC [1] [µg/mL]	MIC [2] [µg/mL]	MIC [3] [µg/mL]	MIC [4] [µg/mL]	MIC [5] [µg/mL]	MIC [6] [µg/mL]	MIC [7] [µg/mL]	Structure (SMILES)
8 (≈ 15.7 µM)	>64	4 (≈ 7.87 µM)	8 (≈ 15.7 µM)	<2	8 (≈ 15.7 µM)	>64								Cc1ncc(CN2CCN(c3cc4c(cc3F)c(=O)c(C(=O)O)cn4C3CC3)CC2)c2c1OC(C)OC2 (stereo not shown) [Compound I-6, 1-cyclopropyl-6-fluoro-7-(4-((2,8-dimethyl-4H-[1,3]dioxino-[4,5-c]pyridine-5-yl)methyl)piperazinyl)-4-oxo-1,4-dihydroquinolin-3-carboxylic acid]
8 (≈ 14.5 µM)	64 (≈ 116 µM)	4 (≈ 7.24 µM)	8 (≈ 14.5 µM)	<2	8 (≈ 14.5 µM)	>64								Cc1nc(CN2CCN(c3cc4c(cc3F)c(=O)c(C(=O)O)cn4C3CC3)CC2)c(CO)c2c1OC(C)(C)OC2 [Compound I-10, 1-cyclopropyl-6-fluoro-7-(4-((5-hydroxymethyl-2,2,8-trimethyl-4H-[1,3]dioxino [4,5-c]pyridine-6-yl)methyl)piperazinyl)-4-oxo-1,4-dihydroquinolin-3-carboxylic acid]
32 (≈ 62.4 µM)	64 (≈ 125 µM)	4 (≈ 7.8 µM)	32 (≈ 62.4 µM)	<2	64 (≈ 125 µM)	>64								Cc1nc(CN2CCN(c3cc4c(cc3F)c(=O)c(C(=O)O)cn4C3CC3)CC2)c(CO)c(CO)c1O [Compound I-11, 1-cyclopropyl-6-fluoro-7-(4-((5-hydroxy-3,4-bis(hydroxymethyl)-6-methylpyridine-2-yl)methyl)piperazinyl)-4-oxo-1,4-dihydroquinolin-3-carboxylic acid]
							16 (≈ 32.4 µM)	8 (≈ 16.2 µM)	0.5 (≈ 1.01 µM)	0.5 (≈ 1.01 µM)	< 2	1 (≈ 2.02 µM)	32 (≈ 64.7 µM)	Cc1ncc(CN2CCN(c3cc4c(cc3F)c(=O)c(C(=O)O)cn4C3CC3)CC2)c2c1OCOC2 [Compound I-12, 1-cyclopropyl-6-fluoro-7-(4-((8-methyl-4H-[1,3]dioxino [4,5-c]pyridine-5-yl)methyl)piperazine-1-yl)-4-oxo-1,4-dihydroquinolin-3-carboxylic acid]
							4 (≈ 9.96 µM)	2 (≈ 4.98 µM)	0.5 (≈ 1.25 µM)	4 (≈ 9.96 µM)	< 2	1 (≈ 2.49 µM)	8 (≈ 19.9 µM)	COc1c(N2C[C@@H]3CCCN[C@@H]3C2)c(F)cc2c(=O)c(C(=O)O)cn(C3CC3)c12 [Moxifloxacin, moxifloxacin, reference compound]
